Assay results taken from US20230093073A1, “METHODS AND COMPOSITIONS FOR COMMUNITY-BASED SCREENING OF POLYMICROBIAL INFECTIONS” (REGENTS OF THE UNIVERSITY OF MINNESOTA, priority 2020, published 2023).

Tests used:
[1] = system: P. aeruginosa and anaerobic bacteria capable of degrading mucins; conditions: cited from earlier work
[2] = system: sputum bacterial communities; assay: Mucin co-culture of CF sputum bacterial communities, community growth by 16S rRNA gene qPCR; assay type: cell-based; conditions: for whether presence of at least one antibiotic-susceptible population predicts community failure in co-culture: sputum co-culture vs individual MICs of P. aeruginosa and anaerobes; for effect on co-operative community growth (16S rRNA gene copies relative to untreated control, FIG. 2C): sputum co-culture, mucin sole carbon source, 1% agarose, 72 h, one fixed concentration per antibiotic
Description: (§1) To further test this idea under clinically relevant conditions, sputum was collected from adult CF patients and isolated P. aeruginosa from each sample (FIG. 1B). Using a panel of widely used CF antibiotics (tobramycin, aztreonam, levofloxacin, piperacillin-tazobactam) and others lacking conventional activity against P. aeruginosa (trimethoprim-sulfamethoxazole, metronidazole), MICs for each isolate were determined under nutrient-rich conditions (akin to standard AST procedures). Concurrently, enrichment culturing was performed to isolate anaerobic mucin-degrading bacteria from each sample (10) and antibiotic MICs were similarly determined. Finally, small aliquots of remaining sputa were diluted in buffer and split between culture tubes containing mucin as the sole carbon source, 1% agarose, and one of the antibiotics listed above. Using these cultures in which P. aeruginosa and anaerobic mucin-degraders were co-dependent on mucin utilization, how co-operative growth affected antibiotic sensitivity relative to independent culture was interrogated.
It was assessed whether co-operative community growth (see FIG. 1A) would affect antibiotic susceptibility. Specifically, we hypothesized that the sensitivity of the overall sputum bacterial community would be set by the least tolerant among P. aeruginosa and anaerobic subpopulations. To test this hypothesis, total 16S rRNA gene copy number was used to quantify community growth in response to each antibiotic relative to untreated controls (FIG. 2C).
Co-culture. Under anaerobic conditions, 200 μL of homogenized sputum was placed into one of eight tubes to which a pre-determined concentration of each antibiotic was added (aztreonam, 100 μg/mL; doxycycline, 6.5 μg/mL; levofloxacin, 6.5 μg/mL; metronidazole, 3.5 μg/mL; piperacillin/tazobactam, 6.5 μg/mL; tobramycin, 500 μg/mL; trimethoprim/sulfamethoxazole, 3.5 μg/mL). […] 200 μL of molten 2% low melting point agarose in PBS was added to each tube and homogenized by pipetting. Each mixture was then added to 0.5 mL Pyrex culture tubes forming a gel upon cooling. Upon removal from the anaerobic chamber, tubes were incubated at 37° C. for 72 h and frozen at −80° C.
DNA extraction. Agar plugs were removed from the culture tubes, transferred to a Matrix E Lysing Tubes (MP Biomedicals) and two volumes of lysis buffer were added. Tubes were vortexed on a bead beater for 2×30 s, followed by centrifugation at 9,500×g for 1 min. Supernatant was transferred to a new tube, incubated at 75° C. for 10 min and returned to room temperature. Lysozyme and RNAse A were then added to final concentrations of 0.2 mg/mL and 50 μg/mL, respectively, and incubated for 1 h at 37° C. […], of 10% SDS and proteinase K (2 mg/mL) were added and incubated overnight at 55° C.
DNA was extracted by adding one volume of phenol:chloroform:iosoamyl alcohol (25:24:1) and vortexing to emulsify. Samples were centrifuged at 21,000×g for 20 min and the upper aqueous layer transferred to a new tube. One volume of chloroform:IAA was then added followed by centrifugation at 21,000×g for 15 min. The upper layer was transferred to a new tube. 3M sodium acetate (pH 5.2) was added and mixed gently, followed by the addition of 1 volume of isopropanol and 3 μL GlycoBlue. Samples were centrifuged for 20 min at 21,000×g and supernatant removed. Pellets were washed using 80% ethanol, air dried for ˜30 min and resuspended in 10 mM Tris (pH 8) prior to storage at −80° C.
qPCR. Community growth was estimated by quantifying 16S rRNA gene copies from co-culture DNA.

P. aeruginosa = assay: Antibiotic susceptibility testing (MIC) of P. aeruginosa isolates from CF sputum in LB; assay type: cell-based, Pseudomonas aeruginosa; conditions: isolates from adult CF sputum, nutrient-rich LB, aerobic, 37° C., 24 h
Description: as §1
Pseudomonas aeruginosa isolation. 100 μL of sputum was streaked onto Pseudomonas isolation agar and incubated at 37° C. for 72 hours. A single isolate from each sample was screened by PCR to confirm identity and stored in 30% glycerol at −80° C.
Antibiotic susceptibility testing. For anaerobic AST, 5 μL of enrichment culture was added to each well of microtiter plate containing MMM supplemented with gradients of seven antibiotics (aztreonam 0-500 μg/mL; doxycycline, 0-25 μg/mL; levofloxacin, 0-25 μg/mL; metronidazole, 0-25 μg/mL; piperacillin/tazobactam, 0-25 μg/mL; tobramycin, 0-500 μg/mL; trimethoprim/sulfamethoxazole, 0-25 μg/mL). Plates were wrapped in parafilm and incubated anaerobically at 37° C. for 72 h. For P. aeruginosa, isolates were grown in lysogeny broth (LB) to an OD600 of 0.5. 5 μL was then added to a similar plate containing LB as the base medium and incubated aerobically at 37° C. for 24 h. Plates were resuspended by pipetting and read spectrophotometrically at OD600 using a BioTek Synergy plate reader. MICs were determined based on the antibiotic concentration required to achieve a 90% reduction in culture density relative to antibiotic-free controls.

[3] = system: anaerobic mucin-degrading bacteria; assay: Anaerobic antibiotic susceptibility testing (MIC) of enrichment cultures from CF sputum in minimal mucin medium; assay type: cell-based; conditions: MMM, 37° C., 72 h
Description: as §1
Anaerobic enrichment. […]
Antibiotic susceptibility testing. […] Plates were resuspended by pipetting and read spectrophotometrically at OD600 using a BioTek Synergy plate reader. MICs were determined based on the antibiotic concentration required to achieve a 90% reduction in culture density relative to antibiotic-free controls.

| Compound | whether presence of at least one antibiotic-susceptible population predicts community failure in co-culture [2] | efficacy against P. aeruginosa isolates (MICs, FIG. 2A) (P. aeruginosa) | effect on co-operative community growth (16S rRNA gene copies relative to untreated control, FIG. 2C) [2] | efficacy against anaerobic enrichments (MICs, FIG. 2B) [3] | also measured |
| --- | --- | --- | --- | --- | --- |
| CC1(C)S[C@@H]2[C@H](NC(=O)[C@H](N)c3ccccc3)C(=O)N2[C@H]1C(=O)O [ampicillin] | – | – | – | – | P. aeruginosa growth in co-culture with mucin-degrading anaerobes ([1]; co-culture on mucins as sole carbon source, inhibition of anaerobic subpopulation): constrained P. aeruginosa growth; resistance of P. aeruginosa determined by standard AST ([1]; standard AST, monoculture): high intrinsic resistance |
| piperacillin-tazobactam | largely predictive of community failure | some isolates were resistant | – | – | – |
| Cc1ncc([N+](=O)[O-])n1CCO [metronidazole] | – | ineffective | striking effect on co-operative cultures | – | sputum community growth, patient 5 ([2]; patient 5, both subpopulations independently resistant, metronidazole 3.5 μg/mL): robust |
| trimethoprim-sulfamethoxazole | largely predictive of community failure | some isolates were resistant | variable effects | – | community growth, patients 3 and 4 ([2]; patients 3 and 4, antibiotic predicted ineffective from individual MICs, T/S 3.5 μg/mL): surprisingly inhibited |
| NC[C@H]1O[C@H](O[C@H]2[C@H](O)[C@@H](O[C@H]3O[C@H](CO)[C@@H](O)[C@H](N)[C@H]3O)[C@H](N)C[C@@H]2N)[C@H](N)C[C@@H]1O [tobramycin] | – | broadly effective | striking effect on co-operative cultures | all anaerobic enrichments demonstrated resistance | – |
| C[C@H]1[C@H](NC(=O)/C(=N\OC(C)(C)C(=O)O)c2csc(N)n2)C(=O)N1S(=O)(=O)O [aztreonam] | largely predictive of community failure | some isolates were resistant | – | variable efficacy | growth of two aztreonam-resistant P. aeruginosa isolates in co-culture ([2]; co-culture with aztreonam-susceptible anaerobic mutualists, aztreonam 100 μg/mL): restricted in co-culture |
